Assay results from patent US20070258986A1, “Targeted Delivery System for Bioactive Agents” (Govt of the US as represented by the secretary,, priority 2003, published 2007).

What was measured:
[1] = molecular target: T1, Y289L GalT (Bos taurus, UniProt P08037, Y289L); test: Labeling of the O-GlcNAc peptide with ketone analogue 1 by mutant Y289L GalT (LC-MS); assay type: biochemical, bovine; conditions: peptide TAPTS(O-GlcNAc)TIAPG 10 μM, analogue 1 1 mM, 6 h at 4° C.
T1 construct: the catalytic domain of GalT has a tyrosine exchanged with another amino acid; made in house
T1 sequence (P08037 130-402 Y289L limits assumed): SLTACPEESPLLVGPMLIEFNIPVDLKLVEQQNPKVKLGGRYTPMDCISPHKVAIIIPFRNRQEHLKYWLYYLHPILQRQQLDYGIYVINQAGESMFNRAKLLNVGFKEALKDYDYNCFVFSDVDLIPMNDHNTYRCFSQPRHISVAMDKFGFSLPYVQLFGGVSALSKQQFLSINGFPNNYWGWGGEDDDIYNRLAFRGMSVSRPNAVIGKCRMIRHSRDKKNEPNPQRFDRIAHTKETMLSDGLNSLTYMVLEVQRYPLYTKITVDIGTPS
Method: Labeling of the O-GlcNAc Peptide: The peptide TAPTS(O-GlcNAc)TIAPG (10 μM was dissolved in 25 mM MOPS buffer, pH 6.7 containing 5 mM MnCl2 and 8 μM reference peptide (ThermoFinnigan, San Jose, Calif.). Ketone analogue 1 and mutant Y289L GalT were added to final concentrations of 1 mM and 100 ng/μL, respectively. Prior to enzyme addition, an aliquot of the reaction was removed as an initial time point for LC-MS analysis. Reactions were incubated at 4° C. for 6 h, after which an aliquot of the reaction mixture was removed for product analysis by LC-MS. The remainder of the reaction was diluted 5-fold into PBS (final concentration: 10.1 mM Na2HPO4, 1.76 mM KH2 HPO4, 137 mM NaCl, 2.7 mM KCl, pH 6.7), and N-(aminooxyacetyl)-N′-(D-biotinoyl) hydrazine (Molecular Probes, Eugene, Oreg.) was added to a final concentration of 12 mM. After 8 h at 25° C., the extent of biotin-oxime product was measured by LC-MS. […] Labeling reactions with wild-type GalT were performed identically, with the exception that reactions were incubated at 37° C. for 12 h. […]
For the aminooxy biotin reaction, formation of the oxime product was monitored using an extracted ion chromatogram within the mass range 1319.0-1321.0 m/z and 1633.0-1635.5 m/z, which was generated post-acquisition via the Xcalibur™ software. […]

[2] = molecular target: T1, Y289L GalT; test: Labeling of O-GlcNAc glycosylated CREB protein with analogue 1 and Y289L GalT, aminooxy biotin, streptavidin-HRP blot; assay type: biochemical, bovine; conditions: recombinant CREB from Sf9 cells, analogue 1 1 mM, 12 h at 4° C., then aminooxy biotin
Method: Labeling of CREB protein: Recombinant O-GlcNAc glycosylated CREB was generated by coexpression of CREB with O-GlcNAc glycosyltransferase in Sf9 cells as described previously (Lamarre-Vincent et al., 2003). 500 ng of CREB in 20 mM HEPES pH 7.9, 100 mM KCl, 0.2 mM EDTA, 15% glycerol was added to 50 mM MOPS pH 6.45 containing 5 mM MnCl2 and 0.25 mU/μL alkaline phosphatase (Unverzagt et al., 1990). Analogue 1 and Y289L GalT were then added to final concentrations of 1 mM and 40 ng/μL, respectively. Control reactions without enzyme or analogue 1 were treated identically. Following incubation at 12 h at 4° C., the reactions were diluted 5-fold into PBS containing protease inhibitors (5 μg/mL pepstatin, 5 μg/mL chymostatin, 20/μg/mL leupeptin, 20 μg/mL aprotinin, 20 μg/mL antipain, 0.2 mM PMSF). Aminooxy biotin was added to a final concentration of 2 mM, and the biotinylation reactions were incubated with gentle shaking for 12 h at 37° C. Reactions were aliquoted for analysis and stopped by boiling in SDS-PAGE loading dye. Proteins were resolved by 10% SDS-PAGE, electrophoretically transferred to nitrocellulose, and probed with streptavidin-HRP. […]

How did the “conversion of the peptide to the ketone-labeled product” value [1] turn out when CC(=O)C[C@H]1[C@@H](OP(=O)(O)OP(=O)(O)OC[C@H]2O[C@@H](n3ccc(=O)[nH]c3=O)[C@H](O)[C@@H]2O)O[C@H](CO)[C@H](O)[C@@H]1O.N.N [analogue 1, Uridine 5′-diphospho-2-acetonyl-2deoxy-α-D-galactopyranose diammonium salt] was run?
The value was “complete conversion”.

What about the “labeling of glycosylated CREB (chemiluminescence)” value ([2]; diammonium salt) of the same compound?
The value was “Strong, selective labeling”.

And the “labeling of glycosylated CREB (chemiluminescence)” value ([2]; listed as 1, diammonium salt)?
Its value is “Strong labeling”.
